Data published in patent US20210252159A1, “CONJUGATES OF CARTILAGE-HOMING PEPTIDES” (priority 2018, published 2021).
Where two headings read alike, the source gives them in different places. Positions of bridges follow the written chain, without caps; N, C: chain ends. Residues, ends and D or L forms follow the SMILES beside them. *: point of attachment. X2 = CC(CCC(C)C(=O)*)C(=O)OCC(=O)[C@@]12O[C@H](C3CCCCC3)O[C@@H]1C[C@H]1[C@@H]3CCC4=CC(=O)C=C[C@]4(C)[C@H]3[C@@H](O)C[C@@]12C

Key:
[1] = IL-1β challenge rat model, dose-ranging study: CBC, organ weights, tolerability; assay type: in vivo, rats
Procedure: IL-6 was measured in knee lavage fluid using a Luminex assay and levels were normalized to total protein in the lavage fluid (FIG. 24). Assessment of the PD inflammatory marker IL-6 in the knee joints of rats challenged with IL-1β was performed. Terminal synovial fluid was collected from all animals and analyzed by Luminex 200 for IL-6 cytokine concentrations using EMD Milliplex MAP Rat Cytokine/Chemokine Magnetic Panel ([…]-65K). […] Doses are listed as nmol/kg The masses of these doses are given below in TABLE 16. Two hours and forty-five minutes (i.e., 2.75 hrs) after administration of the test agents, animals were gently heated and blood was drawn from the tail vein for CBC analysis. Animals were then anesthetized with inhaled isoflurane and injected with 30 ng of IL-1β into the right knee (except for no IL-1β group). Four hours after administration of IL-1β (seven hours after administration of test agent) the animals were euthanized. Blood was drawn for a second CBC analysis and the right knee was lavaged for detection of IL-6 in the lavage fluid using a Luminex assay. Thymus and spleen were harvested and their organ weights determined.
In the same animals for which IL-6 secretion was measured, CBC data (e.g., lymphocyte counts) were also analyzed (FIG. 25) at an early time-point, 2.75 hrs post administration of the test article (FIG. 25A), and at euthanasia 7 hrs post administration (FIG. 25B). All treatments were administered as described above for the measurement of IL-6 secretion.
All treatments and test articles were administered as described above, except for an additional treatment group that received 510 nmol/kg of the peptide-drug conjugate peptide(SEQ ID NO: 105)-DMA-dCIC.

[2] = Solubility for formulation; assay type: physicochemical; conditions: aqueous formulation for systemic delivery
Source text: This study was designed to test whether dCIC delivered by a peptide would enable local suppression of inflammation in the joint while reducing systemic exposure to dCIC compared to that obtained when dosing therapeutic levels of dCIC alone. To enable systemic delivery of dCIC (unconjugated), it was formulated in 40% propylene glycol and then heated in order to solubilize the molecule. […] The peptide-drug conjugates of the disclosure can have a water solubility that allows conjugates to be formulated for systemic delivery, wherein at least some of the drugs used in the peptide-drug conjugates may not have sufficient water solubility for systemic administration when not conjugated to peptide. The conjugates comprising those drugs can home, target, migrate to, accumulate in, bind to, be retained by, or be redirected to a cartilage of a subject.

[3] = test system: IL-6; assay type: in vivo, rats; conditions: Dex 1274 and 127 nmol/kg IV; dCIC 1274 nmol/kg IA or 127 nmol/kg IV; conjugate 127, 51 and 13 nmol/kg IV; four hours after IL-1β
Procedure: In this example, an IL-1β Challenge rat model was used for the evaluation of peptides-drug conjugates. In this model, IL-1β is injected intra-articularly (i.e., IA) into a single knee joint to induce an inflammatory state that can be quantified by measuring IL-6 levels in joint lavage fluid (EXAMPLE 30). The primary goal of using this model was to induce a localized inflammatory state in the joint, as opposed to the systemic inflammation induced in other models, as a way to differentiate localized delivery of dCIC to the joint from systemic administration of the steroid. […] CBC counts were used to assess any reductions in various white blood cell levels, which are established markers of systemic exposure to glucocorticoids. […]
IL-6 was measured in knee lavage fluid using a Luminex assay and levels were normalized to total protein in the lavage fluid (FIG. 24). […] Terminal synovial fluid was collected from all animals and analyzed by Luminex 200 for IL-6 cytokine concentrations using EMD Milliplex MAP Rat Cytokine/Chemokine Magnetic Panel ([sequence]-65K). […] Thymus and spleen were harvested and their organ weights determined.

[4] = IL-1β challenge rat model, follow-up study: WBC, lymphocyte and monocyte counts; assay type: in vivo, rats; conditions: 2.75 hours; peptide 127, conjugate 51 and 13 nmol/kg IV; dCIC 1274 IA, 127 and 51 IV
Procedure: This study was conducted in an identical manner to the dose-ranging study described further above in this EXAMPLE with regard to timing of test agent administration, collection of blood for CBC, injection of IL-1β, and lavage of the knee following euthanasia. In this study, the blood collected at euthanasia was submitted for both CBC and serum chemistry, and thymus and spleen weights were not measured because there was no evidence of treatment effect for dCIC and peptide-dCIC on these organs in the dose-ranging study. Assessment of biomarkers of steroid exposure in blood of rats as part of a PD study as shown in FIG. 27: # denotes dose administered by IA injection, all other treatments were administered IV. The treatment groups included the following test articles: (i) no IL-1β negative control (denoted “No IL-1b”); (ii); vehicle only control for the peptide-drug conjugate (denoted as “vehicle”), which was (5% DMSO in PBS); (iii) the peptide-only control peptide(SEQ ID NO: 105) at 127 nmol/kg (denoted over “Peptide” as “127”); (iv) 3 dose levels of dCIC, 1274 nmol/kg IA, 127 nmol/kg IV, 51 nmol/kg IV (denoted over “dCIC” as “1274 #”, “127” and “51” respectively); (v) and 2 dose levels of peptide(SEQ ID NO: 105)-DMA-dCIC (51 nmol/kg, 13 nmol/kg) (denoted over “Peptide(SEQ ID NO: 105)-DMA-dCIC” as “51” and “13” respectively), each of (i)-(v) with n=10 animals per dose group, except for no Il-1β control and peptide-only control arms which had n=6 animals per dose group. Doses are listed as nmol/kg. Statistical analysis was conducted using Wilcoxon rank-sum test with correction for multiple comparisons using Holm's method.

[5] = Hydrolysis assay of peptide-drug conjugates in rat plasma (free drug by LC/MS); assay type: in vitro ADME; conditions: rat plasma, 37° C., read-out: half-life (in vitro hydrolysis, free dCIC) (converted)
Procedure: Peptide-drug conjugate peptide(SEQ ID NO: 105)-DMA-dCIC was incubated in rat plasma at 37° C. Samples were removed at regular intervals, processed by solvent extraction, and analyzed by LC/MS to quantitate free dCIC. 11 time-points were measured between 5 min and 56 hours with 3 replicates per time point. The assay was repeated two times.
In order to determine hydrolysis rates, conjugates can be diluted in PBS, rat plasma, or human plasma and incubated at 37 degrees. Samples can be taken at designated time-points (e.g., 1, 2, 3, 5, 10, 15, 20, 25, 30, 45, 60, or 90 minutes and/or hours after administration). Internal standards such as triamcinolone acetonide (TAA) can be added as an internal standard, and then active agent/TAA can be extracted using acetonitrile, for example. The samples can be dried down, reconstituted, and analyzed by LC/MS. Data can be normalized using Dex AUC/TAA AUC. Percent hydrolysis can be calculated using the average ratio for active agent AUC/TAA AUC at a time point of maximal drug release. A general method can include using a lyophilized, purified peptide-drug conjugates reconstituted in DMSO following production to generate stock solution at 20 mg/mL. Each conjugate stock can be brought to 0.25 mg/mL in each hydrolysis condition (1×DPBS, human plasma and rat plasma) in triplicate and rocked at 37° C. To quantitate free active agent, 100 μl of the hydrolyzed conjugate solution can be transferred into 1 mL acetonitrile at 4° C. at which time all plasma proteins and intact conjugates can precipitate. This can be performed repeatedly to generate a series of time points (0 hr, 0.5 hr, 1 hr, 2 hr, 4 hr, 6 hr, 8 hr, 24 hr, 32 hr). The acetonitrile solution can be spun at 17,000 g for 5 minutes, and the supernatant removed and added to a 96 well block. The pellet can then be resuspended in 500 μl acetonitrile and re-pelleted as before. The supernatant can be removed and added to the same well in the block. Samples can be prepared for analysis by drying under a nitrogen stream followed by reconstitution in 110 μl 45:55 ACN:Citrate 10 mM pH 5.5. To ensure optimal recovery the block can be shaken via plate shaker at 7,000 rpm for 5 minutes during the reconstitution step. Prior to LC/MS the samples can be transferred to a 96 well plate and centrifuged at 6,500 g for 15 minutes. Analysis can be performed on an Agilent 1260 Infinity series HPLC with inline 6120 single quad MS using acetonitrile, water (+0.1% TFA) gradient (shown below) on an InfinityLab Poroshell SB-C18 column. Quantification of free active agent (or drug) can be achieved through integration of active agent peaks of the TIC.
Lyophilized, purified peptide-drug conjugates were reconstituted in DMSO following production to generate stock solution at 20 mg/mL. Each conjugate stock was brought to 0.25 mg/mL in each hydrolysis condition (1×DPBS, human plasma and rat plasma) in triplicate and rocked at 37° C.
To quantitate free dexamethasone (Dex), 100 μl of the hydrolyzed conjugate solution was transferred into 1 mL acetonitrile at 4° C. at which time all plasma proteins and intact conjugates precipitated. This was performed repeatedly to generate a series of time points (0 hr, 0.5 hr, 1 hr, 2 hr, 4 hr, 6 hr, 8 hr, 24 hr, 32 hr). The corticosteroid triamcinolone acetonide (25 μl, 0.1 mg/mL in 45:55 ACN:Citrate 10 mM pH 5.5) was supplemented into the acetonitrile solution as an internal standard. The acetonitrile solution was spun at 17,000 g for 5 minutes, and the supernatant removed and added to a 96 well block. The pellet was resuspended in 500 μl acetonitrile and re-pelleted as before. The supernatant was removed and added to the same well in the block.
Samples were prepared for analysis by drying under a nitrogen stream followed by reconstitution in 110 μl 45:55 ACN:Citrate 10 mM pH 5.5. To ensure optimal recovery the block was shaken via plate shaker at 7,000 rpm for 5 minutes during the reconstitution step. […]

## C[C@]12C=CC(=O)C=C1CC[C@@H]1[C@@H]2[C@@H](O)C[C@@]2(C)[C@H]1C[C@H]1O[C@@H](C3CCCCC3)O[C@]12C(=O)CO [dCIC, des-ciclesonide]
[1]; 2.75 hours post-treatment
  monocytes (CBC): dose dependent decrease
[1]; 2.75 hrs post administration, Dex both doses, dCIC IA or IV
  Lymphocyte counts as compared to vehicle control: reduction in lymphocyte counts
[1]; 7 hours post administration
  spleen and thymus weights at euthanasia: minimal effect on the weight of both organs
[1]; 7 hours post administration, all dose levels
  Lymphocyte counts at euthanasia: either stable or starting to recover
[2]
  solubility: not soluble in water
[3]
  IL-6 concentration in knee lavage fluid normalized to total protein, compared to vehicle: decrease in IL-6 concentrations
[4]
  Total WBC counts: substantial reduction
  lymphocyte counts: substantial reduction
  monocyte counts: substantial reduction

## CC[C@H](C)[C@@H]1NC(=O)[C@@H]2CSSC[C@H](NC(=O)[C@H](CCCNC(=N)N)NC(=O)[C@@H](NC(=O)[C@H](CC(N)=O)NC(=O)[C@@H](NC(=O)[C@@H]3CCCN3C(=O)[C@@H](NC(=O)CNC(=O)[C@H](CO)NC(=O)CNC(=O)C(C)CCC(C)C(=O)OCC(=O)[C@@]34O[C@H](C5CCCCC5)O[C@@H]3C[C@H]3[C@@H]5CCC6=CC(=O)C=C[C@]6(C)[C@H]5[C@@H](O)C[C@@]34C)C(C)C)[C@@H](C)CC)C(C)C)C(=O)N[C@@H](CCCNC(=N)N)C(=O)NCC(=O)N[C@@H](CO)C(=O)N[C@@H](CCCNC(=N)N)C(=O)N[C@@H](CC(=O)O)C(=O)N[C@H]3CSSC[C@H](NC(=O)[C@H](CCCNC(=N)N)NC(=O)[C@H](CO)NC(=O)[C@H](CC(N)=O)NC1=O)C(=O)N[C@@H](Cc1c[nH]cn1)C(=O)N[C@H](C(=O)N[C@H](C(=O)N1CCC[C@H]1C(=O)O)[C@@H](C)O)CSSC[C@H](NC(=O)[C@@H]1CCCN1C(=O)[C@H](CC(=O)O)NC(=O)[C@H](CC(C)C)NC3=O)C(=O)N[C@@H](CCCNC(=N)N)C(=O)N[C@@H](CCCNC(=N)N)C(=O)N[C@@H](C)C(=O)NCC(=O)N[C@@H](CCSC)C(=O)N[C@@H](CCCNC(=N)N)C(=O)N[C@@H](Cc1ccccc1)C(=O)NCC(=O)N[C@@H](CCCNC(=N)N)C(=O)N2 (some centres unmarked) [Compound 46, peptide(SEQ ID NO: 105)-DMA-dCIC] (X2-GSGVPINVRCRGSRDCLDPCRRAGMRFGRCINSRCHCTP-OH; disulfide 10-30, 16-35, 20-37 (inferred); C-terminus assumed)
[1]; 2.75 hours post-treatment
  monocytes (CBC): dose-dependent increase
[1]; 2.75 hours post-treatment, higher doses
  neutrophils (CBC): dose-dependent increase
[1]; 2.75 hrs post administration, equimolar dose of 127 nmol/kg
  effect on lymphocyte counts as compared to Dex and dCIC alone: less effect on lymphocyte counts
[1]; 7 hours post administration
  spleen and thymus weights at euthanasia: minimal effect on the weight of both organs
[1]; highest dose group (1274 nmol/kg IV)
  mortality: died within 30 minutes of dosing
[1]; lower effective doses (13-51 nmol/kg)
  CBC counts and all observations: normal
[1]; second highest dose group (510 nmol/kg), within 30-90 minutes of dosing
  mortality: three out of five animals
[2]
  solubility: soluble in PBS
[3]
  IL-6 concentration in knee lavage fluid normalized to total protein, compared to vehicle: clear reduction in IL-6 concentration
[5]; first assay, acetonitrile extraction of dCIC
  half-life at 0.25 mg/mL: 8.5 h
[5]; second assay, ethyl acetate extraction of dCIC
  half-life at 0.25 mg/mL: 5 h
